Experiments:
[1] = molecular target: T1, 5-hydroxytryptamine receptor 2C (Homo sapiens, UniProt P28335); test: DRUGMATRIX: Serotonin (5-Hydroxytryptamine) 5-HT2C radioligand binding (ligand: [3H] Mesulergine); assay type: cell membranes, CHO-K1, Membrane; details: cho-k1; Not Active = under 50% inhibition at 10 µM
T1 sequence (P28335 whole entry): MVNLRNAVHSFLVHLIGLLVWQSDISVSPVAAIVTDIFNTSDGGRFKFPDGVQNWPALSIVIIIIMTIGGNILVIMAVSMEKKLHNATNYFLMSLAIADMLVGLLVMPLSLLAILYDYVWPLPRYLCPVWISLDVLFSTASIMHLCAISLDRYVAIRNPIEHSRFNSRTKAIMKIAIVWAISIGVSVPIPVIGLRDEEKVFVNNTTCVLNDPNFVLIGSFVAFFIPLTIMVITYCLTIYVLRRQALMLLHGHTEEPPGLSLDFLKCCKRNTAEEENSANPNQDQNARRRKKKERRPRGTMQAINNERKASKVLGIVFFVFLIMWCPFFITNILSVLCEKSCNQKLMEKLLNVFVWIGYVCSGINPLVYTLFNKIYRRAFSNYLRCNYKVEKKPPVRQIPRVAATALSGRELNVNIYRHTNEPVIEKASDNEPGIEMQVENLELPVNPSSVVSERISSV

[2] = molecular target: T2, C-X-C chemokine receptor type 2 (Homo sapiens, UniProt P25025); assay type: cell membranes, Membrane; details: cho-k1; also: in other assays of this panel Not Active means under 50% inhibition at 10 µM
T2 sequence (P25025 whole entry): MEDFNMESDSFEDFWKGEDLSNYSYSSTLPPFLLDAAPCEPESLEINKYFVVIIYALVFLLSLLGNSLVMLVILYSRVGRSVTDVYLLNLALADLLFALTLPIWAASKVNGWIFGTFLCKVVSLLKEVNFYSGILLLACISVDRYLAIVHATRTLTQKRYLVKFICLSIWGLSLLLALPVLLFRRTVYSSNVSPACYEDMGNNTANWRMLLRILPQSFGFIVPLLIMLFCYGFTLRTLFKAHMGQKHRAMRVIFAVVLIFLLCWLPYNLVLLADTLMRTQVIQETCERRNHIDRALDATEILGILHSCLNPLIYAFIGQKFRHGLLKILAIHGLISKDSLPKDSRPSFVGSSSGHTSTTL

[3] = molecular target: T3, Alpha-2A adrenergic receptor (Homo sapiens, UniProt P08913); assay type: cell membranes, Sf9, Membrane; details: sf9; also: in other assays of this panel Not Active means under 50% inhibition at 10 µM
T3 sequence (P08913 whole entry): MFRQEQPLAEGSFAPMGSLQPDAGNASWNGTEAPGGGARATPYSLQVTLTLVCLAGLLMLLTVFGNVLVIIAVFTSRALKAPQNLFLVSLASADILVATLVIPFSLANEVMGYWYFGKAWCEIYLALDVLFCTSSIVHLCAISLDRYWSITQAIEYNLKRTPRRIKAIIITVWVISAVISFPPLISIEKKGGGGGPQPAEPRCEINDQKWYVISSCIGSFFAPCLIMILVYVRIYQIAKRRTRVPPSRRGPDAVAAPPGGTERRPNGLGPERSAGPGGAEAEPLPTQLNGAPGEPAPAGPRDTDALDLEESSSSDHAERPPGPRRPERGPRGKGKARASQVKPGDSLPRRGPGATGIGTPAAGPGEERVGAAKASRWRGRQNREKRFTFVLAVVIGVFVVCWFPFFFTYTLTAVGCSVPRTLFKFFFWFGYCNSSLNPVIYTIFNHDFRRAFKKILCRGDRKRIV

[4] = molecular target: T4, C-X-C chemokine receptor type 1 (Homo sapiens, UniProt P25024); also: in other assays of this panel Not Active means under 50% inhibition at 10 µM
T4 sequence (P25024 whole entry): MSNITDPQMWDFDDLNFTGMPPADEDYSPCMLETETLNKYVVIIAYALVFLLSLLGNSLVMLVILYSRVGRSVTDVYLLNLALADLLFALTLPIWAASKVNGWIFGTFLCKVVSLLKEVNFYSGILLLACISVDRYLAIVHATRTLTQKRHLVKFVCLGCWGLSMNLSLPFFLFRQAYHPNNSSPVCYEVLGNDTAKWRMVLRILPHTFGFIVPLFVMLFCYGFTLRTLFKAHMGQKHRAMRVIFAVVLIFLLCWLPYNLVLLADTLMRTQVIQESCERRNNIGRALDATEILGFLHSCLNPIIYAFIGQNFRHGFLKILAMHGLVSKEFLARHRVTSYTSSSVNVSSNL

[5] = molecular target: D(1A) dopamine receptor (Homo sapiens, UniProt P21728); test: DRUGMATRIX: Dopamine D1 radioligand binding (ligand: [3H] SCH-23390); assay type: cell membranes, CHO, Membrane; details: cho; Not Active = under 50% inhibition at 10 µM
[6] = molecular target: T5, Cholecystokinin receptor type A (Homo sapiens, UniProt P32238); assay type: cell membranes, Membrane; details: 1321-n1; also: in other assays of this panel Not Active means under 50% inhibition at 10 µM
T5 sequence (P32238 whole entry): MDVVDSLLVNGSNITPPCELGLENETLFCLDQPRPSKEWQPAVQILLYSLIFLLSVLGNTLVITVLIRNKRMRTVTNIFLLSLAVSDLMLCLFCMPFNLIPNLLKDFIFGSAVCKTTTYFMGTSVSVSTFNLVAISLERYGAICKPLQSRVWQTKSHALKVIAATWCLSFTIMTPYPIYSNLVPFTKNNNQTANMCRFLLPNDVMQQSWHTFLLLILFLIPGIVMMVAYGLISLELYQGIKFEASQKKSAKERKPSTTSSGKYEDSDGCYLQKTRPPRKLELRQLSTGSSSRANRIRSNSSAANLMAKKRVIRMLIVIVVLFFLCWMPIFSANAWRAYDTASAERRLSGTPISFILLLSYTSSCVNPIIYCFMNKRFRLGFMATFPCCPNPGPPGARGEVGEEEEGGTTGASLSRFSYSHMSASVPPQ

D(1A) dopamine receptor, sequence (P21728 whole entry): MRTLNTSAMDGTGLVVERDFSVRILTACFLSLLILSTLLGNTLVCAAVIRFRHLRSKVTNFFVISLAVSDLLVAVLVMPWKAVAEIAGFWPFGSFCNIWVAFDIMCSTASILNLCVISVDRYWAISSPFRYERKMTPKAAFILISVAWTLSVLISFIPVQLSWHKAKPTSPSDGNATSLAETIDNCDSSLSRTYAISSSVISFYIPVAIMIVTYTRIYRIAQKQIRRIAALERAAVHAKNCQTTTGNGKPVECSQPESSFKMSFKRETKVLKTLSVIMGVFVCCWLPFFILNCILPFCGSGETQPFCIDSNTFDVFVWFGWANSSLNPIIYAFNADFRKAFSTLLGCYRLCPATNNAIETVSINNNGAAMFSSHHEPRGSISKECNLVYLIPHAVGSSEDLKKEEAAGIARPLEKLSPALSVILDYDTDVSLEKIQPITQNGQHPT

O=C(O)c1cccnc1 [NIACIN]
Not Active: IC50 [1] | IC50 [2] | IC50 [3] | IC50 [4] | IC50 [5] | IC50 [6]

CNC(=C[N+](=O)[O-])NCCSCc1csc(CN(C)C)n1 [NIZATIDINE]
Not Active: IC50 [1] | IC50 [2] | IC50 [3] | IC50 [4] | IC50 [5] | IC50 [6]

C[C@]12C/C(=C/O)C(=O)C[C@@H]1CC[C@@H]1[C@@H]2CC[C@@]2(C)[C@H]1CC[C@]2(C)O [OXYMETHOLONE]
Not Active: IC50 [1] | IC50 [2] | IC50 [3] | IC50 [4] | IC50 [5] | IC50 [6]

CC(C)(CO)C(O)C(=O)NCCCO (stereo unspecified) [PANTHENOL]
Not Active: IC50 [1] | IC50 [2] | IC50 [3] | IC50 [4] | IC50 [5] | IC50 [6]

COc1ccc(Cc2nccc3cc(OC)c(OC)cc23)cc1OC [PAPAVERINE]
Not Active: IC50 [1] | IC50 [2] | IC50 [3] | IC50 [4] | IC50 [5] | IC50 [6]

OCCN1CCN(CCCN2c3ccccc3Sc3ccc(Cl)cc32)CC1 [PERPHENAZINE]
Not Active: IC50 [1] | IC50 [2] | IC50 [3] | IC50 [4] | IC50 [5] | IC50 [6]

CCCCC1C(=O)N(c2ccccc2)N(c2ccccc2)C1=O [PHENYLBUTAZONE]
Not Active: IC50 [1] | IC50 [2] | IC50 [3] | IC50 [4] | IC50 [5] | IC50 [6]

Cc1cccc(Nc2cc(Cl)nc(SCC(=O)O)n2)c1C [PIRINIXIC ACID]
Not Active: IC50 [1] | IC50 [2] | IC50 [3] | IC50 [4] | IC50 [5] | IC50 [6]

CC[C@H](C)C(=O)O[C@H]1C[C@H](O)C=C2C=C[C@H](C)[C@H](CC[C@@H](O)C[C@@H](O)CC(=O)O)[C@H]21 [PRAVASTATIN]
Not Active: IC50 [1] | IC50 [2] | IC50 [3] | IC50 [4] | IC50 [5] | IC50 [6]

CC(C)(Sc1cc(C(C)(C)C)c(O)c(C(C)(C)C)c1)Sc1cc(C(C)(C)C)c(O)c(C(C)(C)C)c1 [PROBUCOL]
Not Active: IC50 [1] | IC50 [2] | IC50 [3] | IC50 [4] | IC50 [5] | IC50 [6]

COBALT(II) ACETYLACETONATE
Not Active: IC50 [1] | Ki [1] | IC50 [2] | Ki [2] | IC50 [3] | Ki [3] | IC50 [4] | Ki [4] | IC50 [5] | Ki [5] | IC50 [6] | Ki [6]

INSULIN HUMAN
Not Active: IC50 [1] | Ki [1] | IC50 [2] | Ki [2] | IC50 [3] | Ki [3] | IC50 [4] | Ki [4] | IC50 [5] | Ki [5] | IC50 [6] | Ki [6]

POLYVINYL ALCOHOL
Not Active: IC50 [1] | Ki [1] | IC50 [2] | Ki [2] | IC50 [3] | Ki [3] | IC50 [4] | Ki [4] | IC50 [5] | Ki [5] | IC50 [6] | Ki [6]

— ChEMBL document CHEMBL1909046, “DrugMatrix in vitro pharmacology data”
